Experiments:
Experiment in all cases: relative viability (nuclei count vs DMSO), 5 days (fraction); higher = more cells survive
[1] = compound: C1CNCCC1C2=CC(=NN2)C3=CC=NC=C3 + Nc1nc2[nH]cc(CCc3ccc(C(=O)N[C@@H](CCC(=O)O)C(=O)O)cc3)c2c(=O)[nH]1 [Pemetrexed] (partner 0.2 µM)
Summary of the method: (§1)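 Values are medians from duplicate plates. Each reflects relative viability, defined as the nuclei count of treated wells over that of vehicle wells. Lung cancer cell lines in 1536-well plates were pin-tool dosed one day after seeding with one drug alone or with a fixed anchor-drug dose plus five library-drug doses (not always all listed) in √10 steps, then fixed, stained and imaged at 4× after 5 days.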

[2] = compound: C[C@@H](N)c1ccc(C(=O)Nc2ccnc3[nH]ccc23)cc1 + NC(=O)Nc1cc(-c2cccc(F)c2)sc1C(=O)N[C@H]1CCCNC1 [AZD7762] (partner 0.2 µM)
Summary of the method: as §1

[3] = compound: O[C@H]1CC[C@H](Nc2ncc3nc(Nc4c(F)cc(F)cc4F)n([C@H]4CCOC4)c3n2)CC1 [Tanzisertib] + COc1cc2c(Oc3ccc(NC(=O)C4(C(=O)Nc5ccc(F)cc5)CC4)cc3F)ccnc2cc1OCCCN1CCOCC1 [Foretinib] (partner 0.25 µM)
Summary of the method: as §1

[4] = compound: O[C@H]1CC[C@H](Nc2ncc3nc(Nc4c(F)cc(F)cc4F)n([C@H]4CCOC4)c3n2)CC1 [Tanzisertib] + Cc1nc(Nc2ncc(C(=O)Nc3c(C)cccc3Cl)s2)cc(N2CCN(CCO)CC2)n1 [Dasatinib] (partner 0.075 µM)
Summary of the method: as §1

Q: What does the source list for NCI-H460?
A: relative viability ([1]; first compound 0.08 µM): 0.0816; relative viability ([1]; first compound 0.8 µM): 0.066; relative viability ([1]; first compound 2.53 µM): 0.0652; relative viability ([1]; first compound 8 µM): 0.0683; relative viability ([2]; first compound 0.04 µM): 0.66; relative viability ([2]; first compound 0.1265 µM): 0.656; relative viability ([2]; first compound 0.4 µM): 0.844; relative viability ([2]; first compound 1.265 µM): 0.873; relative viability ([2]; first compound 4 µM): 0.913; relative viability ([3]; first compound 0.08 µM): 1.05; relative viability ([3]; first compound 0.253 µM): 1.03; relative viability ([3]; first compound 0.8 µM): 0.884; relative viability ([3]; first compound 2.53 µM): 1.07; relative viability ([3]; first compound 8 µM): 1.01; relative viability ([4]; first compound 0.08 µM): 0.595; relative viability ([4]; first compound 0.253 µM): 0.595; relative viability ([4]; first compound 0.8 µM): 0.489; relative viability ([4]; first compound 2.53 µM): 0.474; relative viability ([4]; first compound 8 µM): 0.303

Q: Which results are given for LOU-NH91?
A: relative viability ([1]; first compound 0.08 µM): 0.403; relative viability ([1]; first compound 0.8 µM): 0.63; relative viability ([1]; first compound 2.53 µM): 0.367; relative viability ([1]; first compound 8 µM): 0.351; relative viability ([2]; first compound 0.04 µM): 0.622; relative viability ([2]; first compound 0.1265 µM): 0.782; relative viability ([2]; first compound 0.4 µM): 0.751; relative viability ([2]; first compound 1.265 µM): 0.628; relative viability ([2]; first compound 4 µM): 0.518; relative viability ([3]; first compound 0.08 µM): 0.914; relative viability ([3]; first compound 0.253 µM): 0.946; relative viability ([3]; first compound 0.8 µM): 0.903; relative viability ([3]; first compound 2.53 µM): 0.87; relative viability ([3]; first compound 8 µM): 0.639; relative viability ([4]; first compound 0.08 µM): 0.597; relative viability ([4]; first compound 0.253 µM): 0.585; relative viability ([4]; first compound 0.8 µM): 0.564; relative viability ([4]; first compound 2.53 µM): 0.515; relative viability ([4]; first compound 8 µM): 0.391

Q: Which results are given for NCI-H1651?
A: relative viability ([1]; first compound 0.08 µM): 0.592; relative viability ([1]; first compound 0.8 µM): 0.597; relative viability ([1]; first compound 2.53 µM): 0.608; relative viability ([1]; first compound 8 µM): 0.575; relative viability ([2]; first compound 0.04 µM): 0.484; relative viability ([2]; first compound 0.1265 µM): 0.493; relative viability ([2]; first compound 0.4 µM): 0.574; relative viability ([2]; first compound 1.265 µM): 0.737; relative viability ([2]; first compound 4 µM): 0.675; relative viability ([3]; first compound 0.08 µM): 0.875; relative viability ([3]; first compound 0.253 µM): 0.951; relative viability ([3]; first compound 0.8 µM): 0.794; relative viability ([3]; first compound 2.53 µM): 0.996; relative viability ([3]; first compound 8 µM): 0.539; relative viability ([4]; first compound 0.08 µM): 0.378; relative viability ([4]; first compound 0.253 µM): 0.522; relative viability ([4]; first compound 0.8 µM): 0.378; relative viability ([4]; first compound 2.53 µM): 0.336; relative viability ([4]; first compound 8 µM): 0.417

Q: Which results are given for NCI-H441?
A: relative viability ([1]; first compound 0.08 µM): 0.264; relative viability ([1]; first compound 0.8 µM): 0.251; relative viability ([1]; first compound 2.53 µM): 0.247; relative viability ([1]; first compound 8 µM): 0.243; relative viability ([2]; first compound 0.04 µM): 1.29; relative viability ([2]; first compound 0.1265 µM): 0.841; relative viability ([2]; first compound 0.4 µM): 1.49; relative viability ([2]; first compound 1.265 µM): 1.21; relative viability ([2]; first compound 4 µM): 1.13; relative viability ([3]; first compound 0.08 µM): 0.488; relative viability ([3]; first compound 0.253 µM): 0.797; relative viability ([3]; first compound 0.8 µM): 1.03; relative viability ([3]; first compound 2.53 µM): 0.994; relative viability ([3]; first compound 8 µM): 0.752; relative viability ([4]; first compound 0.08 µM): 0.625; relative viability ([4]; first compound 0.253 µM): 0.499; relative viability ([4]; first compound 0.8 µM): 0.605; relative viability ([4]; first compound 2.53 µM): 0.479; relative viability ([4]; first compound 8 µM): 0.521

— the supplement of paper PMC10307832
